Data as given in patent US9012446B2, “Amino-oxazines and amino-dihydrothiazine compounds as beta-secretase modulators and methods of use” (Amgen Inc., priority 2010, dated 2015).
pIC50: −log10 of the molar value. Read-outs that look alike come from different tables or passages of the source.

Columns and labels:
BACE = BACE (Homo sapiens, UniProt P56817); test: In vitro enzymatic BACE FRET assay; assay type: biochemical; details: average IC50, enzyme assay; read-out: BACE 1 FRET assay
Experimental: In Vitro Enzymatic BACE FRET (Fluorescence Resonance Energy Transfer) Assay (Enzyme Assay Data in the Example Table I) The assay buffer used in this screen is 0.05 M acetate, pH 4.2, 10% DMSO final, 100 uM genapol (which is a nonionic detergent, below its Critical Micelle Concentration). The beta secretase enzyme (0.2 nM) is pre-incubated for one hour with inhibitors, typically in about 1 uL of DMSO according to a serial dilution, are added thereto. This assay is effectively started by the addition of FRET substrate (50 nM) and the combination is incubated for one hour. The FRET assay is terminated with by addition of Tris buffer, which raises the pH to neutrality, and the fluorescence is determined. The FRET substrate is a peptide with commercially available fluorophore and quencher, on opposite sides of the BACE cleavage site. Proteolytic cleavage of the FRET substrate releases quenching of fluorescence (excitation 488 nm and emission […]).

Aβ40 = test: In vitro BACE cell-based assay (Aβ40 sandwich ELISA, cells stably expressing APP)
Experimental: In Vitro BACE Cell-Based Assay […] Cells stably expressing Amyloid Precursor Protein (APP) were plated at a density of 40K cells/well in 96 well plates (Costar). The cells were cultivated for 24 hours at 37° C. and 5% CO2 in DMEM supplemented with 10% FBS. The test compounds were then added to cells in 10-point dose response concentrations with the starting concentration being either 100 μM or 10 μM. The compounds were diluted from stock solutions in DMSO and the final DMSO concentration of the test compounds on cells was 0.1%. […] The IC50 of the compound was calculated from the percent of control or percent inhibition of Aβ40 as a function of the concentration of the test compound. The sandwich ELISA to detect Aβ40 was performed in 96 well microtiter plates, which were pre-treated with goat anti-rabbit IgG (Pierce). […] The optimal concentration for the pAb40 antibody was 3 μg/ml in Superblock/TBS (Pierce) that was supplemented with 0.05% Tween 20 (Sigma). […] Cellular supernatants were incubated with the capture antibody for 3 h at 4° C., followed by 3 wash steps in TBS-tween (0.05%). The detecting antibody incubation was for 2 h at 4° C., again followed by the wash steps as described previously. The final readout of the ELISA is Time-Resolved Fluorescence (counts per minute) using Delfia reagents Streptavidin-Europium and Enhancement solutions (Perkin Elmer) and the Victor 2 multilabel counter (Perkin Elmer).

[1] = Homo sapiens, HEK293, average IC50, cell assay, HEK cells
[2] = Homo sapiens, HEK293, average IC50, read-out: HEK cell assay

BACE, sequence (P56817 46-501, species assumed): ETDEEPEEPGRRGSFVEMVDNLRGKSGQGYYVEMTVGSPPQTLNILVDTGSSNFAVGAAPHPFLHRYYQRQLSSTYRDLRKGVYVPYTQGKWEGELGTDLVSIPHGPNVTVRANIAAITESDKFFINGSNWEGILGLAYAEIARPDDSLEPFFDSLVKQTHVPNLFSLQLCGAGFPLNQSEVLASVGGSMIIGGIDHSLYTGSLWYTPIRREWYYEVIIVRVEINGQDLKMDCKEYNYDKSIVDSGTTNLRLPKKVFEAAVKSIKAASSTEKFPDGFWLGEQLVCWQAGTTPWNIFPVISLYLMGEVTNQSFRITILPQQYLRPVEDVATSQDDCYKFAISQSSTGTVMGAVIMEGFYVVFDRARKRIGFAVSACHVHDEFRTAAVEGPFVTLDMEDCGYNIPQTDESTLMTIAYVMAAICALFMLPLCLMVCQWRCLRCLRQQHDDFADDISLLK

SMILES	pIC50 (BACE)	pIC50 (Aβ40; [1])	pIC50 (Aβ40; [2])	pIC50 (Aβ40; average IC50, read-out: HEK cell assay)
NC1=N[C@@]2(COC1)c1cc(-c3cncc(F)c3)ccc1Oc1cnc(C3=CCCOC3)cc12 [compound 121]	9.30	9.70		
COc1cc2c(cn1)Oc1ccc(-c3cccnc3F)cc1[C@@]21COCC(N)=N1 [compound 123]	8.66	8.48		
COc1cc2c(cn1)Oc1ccc(-c3cccnc3)cc1[C@@]21COCC(N)=N1 [compound 124]	8.17	8.29		
COc1cc2c(cn1)Oc1ccc(-c3cc(F)ccc3Cl)cc1[C@@]21COCC(N)=N1 [compound 125]	8.66	7.91		
CC(C)(C#N)COc1cc2c(cn1)Oc1ccc(-c3cc(Cl)ccc3F)cc1[C@@]21COCC(N)=N1 [compound 127]	9.52	8.85		
NC1=N[C@@]2(COC1)c1cc(Br)ccc1Oc1c2cc(N2CCC(F)(F)CC2)nc1F [compound 128]	7.76	6.96		
NC1=N[C@]2(COC1)c1cc(C3=CCCOC3)ccc1Oc1ccc(-c3cccnc3F)cc12 [compound 130]	9.15	7.91		
CC#Cc1cncc(-c2ccc3c(c2)[C@@]2(COCC(N)=N2)c2cc(C4=CCOCC4)cc(F)c2O3)c1 [compound 131]	9.15	8.60		
NC1=N[C@@]2(COC1)c1cc(-c3cncnc3)ccc1Oc1c(F)cc(C3=CCCOC3)cc12 [compound 133]	9.52	9.40		
CC(C)(C)COc1ccc2c(c1)[C@]1(COCC(N)=N1)c1cc(Br)ccc1O2 [compound 135, (3R)-2′-bromo-7′-(2,2-dimethylpropoxy)-6H-spiro[1,4-oxazine-3,9′-xanthen]-5-amine]	6.99	6.23		
COc1ccc2c(c1)C1(CCSC(N)=N1)c1cc(-c3cncnc3)ccc1O2 (stereo not shown) [compound 137]	5.95	5.94		
CC(C)(C)C#Cc1cc2c(cn1)Oc1ccc(-c3cncc(F)c3)cc1[C@@]21CCOC(N)=N1 [compound 139]	7.89	8.16		
NC1=N[C@@]2(CCO1)c1cc(-c3cncc(F)c3)ccc1Oc1cnc(-c3cccnc3)cc12 [compound 140]	7.97	8.47		
NC1=N[C@@]2(CCO1)c1cc(-c3cccnc3F)ccc1Oc1cnc(-c3cncc(Cl)c3)cc12 [compound 141]	8.02	7.65		
NC1=N[C@@]2(CCO1)c1cc(-c3cncc(F)c3)ccc1Oc1cnc(-c3cncc(F)c3)cc12 [compound 142]	8.21	8.38		
NC1=N[C@@]2(CCO1)c1cc(-c3cncc(F)c3)ccc1Oc1cnc(C3=CCOCC3)cc12 [compound 143]	8.24	8.43		
NC1=N[C@@]2(CCO1)c1cc(-c3cccnc3F)ccc1Oc1cnc(C3CCOCC3)cc12 [compound 144]	7.88	7.45		
NC1=N[C@]2(CCO1)c1cc(-c3cccnc3F)ccc1Oc1cnc(-c3cccnc3)cc12 [compound 147]	6.88	6.88		
NC1=N[C@@]2(CCO1)c1cc(-c3cccnc3F)ccc1Oc1cnc(-c3cccnc3)cc12 [compound 148]	8.34	8.39		
NC1=NC2(CCO1)c1cc(-c3cccnc3)ccc1Oc1cnc(-c3cccnc3)cc12 (stereo not shown) [compound 150, 3,7-di-3-pyridinyl-5′,6′-dihydrospiro[chromeno[2,3-c]pyridine-5,4′-[1,3]oxazin]-2′-amine]	7.89	7.99		
NC1=NC2(CCO1)c1cc(-c3cccnc3)ccc1Oc1cnc(C3=CCOCC3)cc12 (stereo not shown) [compound 151]	8.14	8.47		
NC1=N[C@]2(CCO1)c1cc(-c3cccnc3F)ccc1Oc1cnc(-c3cncc(F)c3)cc12 [compound 152]	6.62	6.97		
NC1=N[C@]2(CCO1)c1cc(-c3cccnc3)ccc1Oc1c(F)cc(C3=CCOCC3)cc12 [compound 157]	6.11	7.11		
CC(C)(F)COc1cc(F)c2c(c1)[C@@]1(CCOC(N)=N1)c1cc(-c3cccnc3)ccc1O2 [compound 158]	6.03	6.41		
NC1=N[C@]2(CCO1)c1cc(-c3cccnc3)ccc1Oc1c(F)cc(C3=CCCOC3)cc12 [compound 159]	6.21	7.15		

SMILES	pIC50 (BACE)	pIC50 (Aβ40; [1])	pIC50 (Aβ40; [2])	pIC50 (Aβ40; average IC50, read-out: HEK cell assay)
CC1(COc2cc(F)c3c(c2)[C@]2(CCOC(N)=N2)c2cc(-c4cccnc4)ccc2O3)COC1 [compound 160]	8.20	8.23		
CC1(COc2cc(F)c3c(c2)[C@@]2(CCOC(N)=N2)c2cc(-c4cccnc4)ccc2O3)COC1 [compound 161]	5.56	6.48		
NC1=N[C@]2(CCO1)c1cc(-c3cccnc3F)ccc1Oc1c(F)cc(N3CCC(F)(F)CC3)cc12 [compound 162]	6.02		5.52	
NC1=N[C@]2(CCO1)c1cc(-c3cccnc3F)ccc1Oc1c(F)cc(-c3ccncc3)cc12 [compound 165]	6.26		6.61	
NC1=N[C@]2(CCO1)c1cc(-c3cccnc3F)ccc1Oc1c(F)cc(-c3cccnc3)cc12 [compound 167]	6.83		6.96	
NC1=N[C@]2(CCO1)c1cc(-c3cccnc3F)ccc1Oc1c(F)cc(C3=CCOCC3)cc12 [compound 169]	5.51		5.47	
CC1(COc2cc(F)c3c(c2)[C@@]2(CCOC(N)=N2)c2cc(-c4cccnc4F)ccc2O3)COC1 [compound 171]	6.28		6.61	
NC1=N[C@]2(CCO1)c1cc(-c3cccnc3F)ccc1Oc1c(F)cc(C3=CCCOC3)cc12 [compound 172]	5.92		5.97	
COc1cc(F)c2c(c1)[C@]1(CCOC(N)=N1)c1cc(-c3cccnc3F)ccc1O2 [compound 175, (4S)-4′-fluoro-7′-(2-fluoro-3-pyridinyl)-2′-methoxy-5,6-dihydrospiro[1,3-oxazine-4,9′-xanthen]-2-amine]	7.42		7.03	
NC1=N[C@]2(CCO1)c1cc(-c3cccnc3F)ccc1Oc1c(F)cc(N3CC[C@@H](F)C3)cc12 [compound 177]	6.05		5.60	
NC1=N[C@]2(CCO1)c1cc(-c3cccnc3F)ccc1Oc1c(F)cc(N3CCOCC3)cc12 [compound 179]	5.29		5.55	
CC1(COc2cc(F)c3c(c2)[C@]2(CCOC(N)=N2)c2cc(-c4cccnc4F)ccc2O3)COC1 [compound 180]	8.64		8.49	
CC(C)(F)COc1cc(F)c2c(c1)[C@@]1(CCOC(N)=N1)c1cc(-c3cccnc3F)ccc1O2 [compound 181]	5.86		5.94	
NC1=N[C@]2(CCO1)c1cc(-c3cccnc3F)ccc1Oc1c(F)cc(-c3ccnc(F)c3)cc12 [compound 183]	8.15			7.81
COc1cc(F)c2c(c1)[C@]1(CCSC(N)=N1)c1cc(-c3cccnc3F)ccc1O2 [compound 187]	7.52		6.80	
NC1=N[C@@]2(CCS1)c1cc(-c3cccnc3F)ccc1Oc1cnc(-c3ccnc(F)c3)cc12 [compound 188]	8.59		7.95	
NC1=N[C@]2(CCS1)c1cc(-c3cccnc3F)ccc1Oc1cnc(-c3ccnc(F)c3)cc12 [compound 189]	5.62		5.48	
NC1=N[C@]2(CCS1)c1cc(-c3cccnc3F)ccc1Oc1c(F)cc(C3=CCCOC3)cc12 [compound 190]	6.34		6.36	
NC1=N[C@]2(CCS1)c1cc(-c3cccnc3F)ccc1Oc1cnc(Cl)cc12 [compound 192]	5.48		5.25	
NC1=N[C@@]2(CCS1)c1cc(-c3cccnc3F)ccc1Oc1cnc(C3=CCOCC3)cc12 [compound 193]	8.48		8.33	
NC1=N[C@]2(CCS1)c1cc(-c3cccnc3F)ccc1Oc1cnc(C3=CCOCC3)cc12 [compound 194]	6.32		6.03	
NC1=N[C@]2(CCS1)c1cc(-c3cccnc3F)ccc1Oc1cnc(C3=CCCOC3)cc12 [compound 195]	6.04		5.71	
NC1=N[C@]2(CCS1)c1cc(-c3cccnc3F)ccc1Oc1c(F)cc(C3=CCOCC3)cc12 [compound 196]	5.60		7.08	
CC1(COc2cc(F)c3c(c2)[C@]2(CCSC(N)=N2)c2cc(-c4cccnc4F)ccc2O3)COC1 [compound 197]	8.60		8.32	
CC1(COc2cc(F)c3c(c2)[C@@]2(CCSC(N)=N2)c2cc(-c4cccnc4F)ccc2O3)COC1 [compound 198]	6.25		6.20	
